What all share (assay): DTP human tumour cell line panel, 48 h
Assay [1] concerns RXF 393.
Assay [2] concerns OVCAR-8.
In assay [3] the test system is UO-31.
Assay [4] has as its system IGROV-1.
The subject of assay [5] is NCI-H226.
Assay [6] relates to CAKI-1.
The subject of assay [7] is ACHN.
Assay [8] concerns SF-295.
Assay [9] deals with NCI-H460.
In assay [10] the test system is PC-3.
For assay [11], the system named is MDA-MB-435.
The subject of assay [12] is TK-10.
The test system of assay [13] is SR.
Assay [14] relates to OVCAR-4.
Assay [15] has as its system 786-0.
Assay [16] has as its system UACC-257.
Assay [17] deals with SF-268.
Assay [18] concerns HCT-116.
Assay [19] relates to MDA-N.
Assay [20] deals with COLO 205.

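In this assay, cells in 96-well plates receive the compound at five concentrations for 48 hours. Endpoints are linearly interpolated between the surrounding concentrations. Abbreviation: GI50, concentration required for 50% inhibition of growth.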 Active and inactive are the calls of the source. No stated cut-off is given here; in the data, active = GI50 up to about 1.1 µM and inactive = higher. A value given as a limit tells only on which side of the number the result lay.

As to `C=C1[C@@H](C)[C@H]2[C@H](Cc3ccccc3)NC(=O)[C@]23OC(=O)/C=C/[C@H](O)CCC[C@@H](C)C/C=C/[C@H]3[C@@H]1O`, the GI50 was 0.94 µM (active) in assay [1]; 5.43 µM (inactive) in assay [2]; 0.258 µM (active) in assay [3]; 6.59 µM (inactive) in assay [4]; 1.18 µM (inactive) in assay [5]; 0.233 µM (active) in [6]. Further, the GI50 is 4.4 µM (inactive) in assay [7]; 0.979 µM (active) in [8]; 2.62 µM (inactive) in assay [9]; 3.76 µM (inactive) in assay [10]; 21.8 µM (inactive) in assay [11]; 4.06 µM (inactive) in assay [12]. Further, the GI50 in assay [13] was > 100 µM (inactive); in [14] it was 8.67 µM (inactive); in assay [15], 7.62 µM (inactive); in assay [16], 9.62 µM (inactive); in [17] it was 2.55 µM (inactive); in assay [18] it was 8.41 µM (inactive). Moreover, the GI50 in assay [19] is 14.2 µM (inactive); in assay [20] it was 0.713 µM (active).

Consider `CNC(=O)OCc1cnc([N+](=O)[O-])n1C`, for which the GI50 in assay [1], in assay [2], in [3], in assay [4], in assay [5] and in assay [6] was > 100 µM (inactive) in each case. The GI50 in [7], in assay [8], in assay [9], in assay [10], in assay [11] and in [12] was > 100 µM (inactive) in each case. Further, the GI50 in assay [13], in assay [14], in assay [15], in assay [16], in assay [17] and in assay [18] was > 100 µM (inactive) each time. The GI50 in [19] and in assay [20] was > 100 µM (inactive) each time.

As to `Cc1cc(NS(=O)(=O)c2ccc(NC(=O)c3cccc4c(NNc5ccc(S(N)(=O)=O)cc5)c5ccccc5nc34)cc2)no1`, the GI50 was 41.5 µM (inactive) in [1]; 47.9 µM (inactive) in assay [2]; 36.1 µM (inactive) in assay [3]; 47.3 µM (inactive) in assay [4]; 34 µM (inactive) in assay [5]; > 100 µM (inactive) in assay [6]. Further, the GI50 is 39 µM (inactive) in assay [7]; 44.4 µM (inactive) in assay [8]; 34.9 µM (inactive) in assay [9]; 33.7 µM (inactive) in assay [10]; 75.7 µM (inactive) in [11]; 83.2 µM (inactive) in [12]. The GI50 in [13] was 35.8 µM (inactive); in [14], 31.8 µM (inactive); in assay [15], 54.6 µM (inactive); in [16], > 100 µM (inactive); in assay [17] it was 34.9 µM (inactive); in assay [18], 33.2 µM (inactive). Also, the GI50 was 52.1 µM (inactive) in assay [19] and 45.1 µM (inactive) in assay [20].

Turning to `COc1ccc(Cc2ccc3nc(O)cc(C)c3c2)cc1S(=O)(=O)O`, the GI50 in assay [1], in assay [2], in [3], in assay [4], in assay [5] and in assay [6] was > 100 µM (inactive) in each case. Besides, the GI50 in [7], in assay [8], in [9], in [10], in assay [11] and in [12] was > 100 µM (inactive) in each case. For the same compound, the GI50 in [13], in assay [14], in assay [15], in [16], in assay [17] and in assay [18] was > 100 µM (inactive) each time. For the same compound, the GI50 in [19] and in assay [20] was > 100 µM (inactive) in each case.

Take `Cc1c(-c2cnccn2)ssc1=S` [OLTIPRAZ]: the GI50 in assay [1] is 31.9 µM (inactive); in assay [2], 72.4 µM (inactive); in assay [3], 40 µM (inactive); in assay [4], > 100 µM (inactive); in assay [5], 94.2 µM (inactive); in [6], > 100 µM (inactive). In addition, the GI50 in assay [7] was 44 µM (inactive); in assay [8], 57.4 µM (inactive); in assay [9], > 100 µM (inactive); in assay [10], > 100 µM (inactive); in assay [11], > 100 µM (inactive); in assay [12], 62.7 µM (inactive). The GI50 in [13] is 68.9 µM (inactive); in assay [14] it was > 100 µM (inactive); in assay [15] it was 40.4 µM (inactive); in [16], 24.5 µM (inactive); in assay [17], 56.2 µM (inactive); in assay [18] it was 54.3 µM (inactive). Besides, the GI50 in [19] and in assay [20] was > 100 µM (inactive) in each case.

On to `Nc1nc(N)c(Cn2ccnc2)c(O)n1`, for which the GI50 in [1], in assay [2], in assay [3], in assay [4], in assay [5] and in [6] was > 100 µM (inactive) each time. Moreover, the GI50 in assay [7], in assay [8], in [9], in assay [10], in [11] and in [12] was > 100 µM (inactive) throughout. The GI50 in [13], in [14], in assay [15], in [16], in assay [17] and in assay [18] was > 100 µM (inactive) each time. The GI50 in assay [19] and in assay [20] was > 100 µM (inactive) throughout.

As to `N=C(N)NS(=O)(=O)c1ccc(NC(=O)c2ccc3nc4ccccc4c(Nc4ccc(S(=O)(=O)N=C(N)N)cc4)c3c2)cc1`, the GI50 in assay [1], in assay [2], in assay [3], in [4], in [5] and in [6] was > 100 µM (inactive) throughout. The GI50 in assay [7], in assay [8], in assay [9], in [10], in [11] and in assay [12] was > 100 µM (inactive) throughout. In addition, the GI50 in [13], in assay [14], in [15], in assay [16], in assay [17] and in [18] was > 100 µM (inactive) in each case. Moreover, the GI50 in [19] and in assay [20] was > 100 µM (inactive) throughout.

For `Cc1cc(S(=O)(=O)Nc2nc(Nc3ccc4ccccc4c3)n[nH]2)c(S)cc1Cl`, the GI50 in [1] was 75.2 µM (inactive); in assay [2] it was 64.3 µM (inactive); in assay [3], > 100 µM (inactive); in assay [4] it was 52.8 µM (inactive); in assay [5], 34.1 µM (inactive); in [6], 52.8 µM (inactive). In addition, the GI50 in assay [7] was 84.9 µM (inactive); in [8], 30.2 µM (inactive); in [9] it was 34.8 µM (inactive); in assay [10], 33.6 µM (inactive); in assay [11], 24.9 µM (inactive); in assay [12], > 100 µM (inactive). Besides, the GI50 is > 100 µM (inactive) in assay [13]; 79.1 µM (inactive) in [14]; 47.3 µM (inactive) in [15]; 34.3 µM (inactive) in assay [16]; 72.1 µM (inactive) in assay [17]; 41.5 µM (inactive) in assay [18]. In addition, the GI50 is 13.7 µM (inactive) in [19] and 57.8 µM (inactive) in [20].

With `Cc1nc2c(=O)n(-c3ccccc3)c(=O)n(-c3ccccc3)c2o1`, the GI50 in assay [1], in assay [2], in assay [3], in assay [4], in assay [5] and in assay [6] was > 100 µM (inactive) in each case. The GI50 is > 100 µM (inactive) in assay [7]; > 100 µM (inactive) in assay [8]; > 100 µM (inactive) in [9]; > 100 µM (inactive) in [10]; > 100 µM (inactive) in [11]; 58.3 µM (inactive) in assay [12]. In addition, the GI50 in [13], in [14], in [15], in assay [16], in [17] and in [18] was > 100 µM (inactive) throughout. Also, the GI50 in assay [19] and in assay [20] was > 100 µM (inactive) throughout.

Take `C=CCOC1=C(OC(C)=O)C(=O)OC1C1COC(C)(C)O1` (stereo not given): the GI50 in assay [1] is 26.3 µM (inactive); in assay [2], 28.6 µM (inactive); in assay [3], 28.1 µM (inactive); in assay [4], 37.9 µM (inactive); in assay [5] it was 61.1 µM (inactive); in assay [6], 37.7 µM (inactive). Further, the GI50 was 21.6 µM (inactive) in assay [7]; 79.1 µM (inactive) in [8]; > 62.5 µM (inactive) in assay [9]; > 57.3 µM (inactive) in [10]; 34.3 µM (inactive) in assay [11]; 67 µM (inactive) in assay [12]. The GI50 in assay [13] is 5.58 µM (inactive); in assay [14], 17.2 µM (inactive); in assay [15] it was 32.1 µM (inactive); in assay [16], 60.3 µM (inactive); in [17] it was 48.4 µM (inactive); in assay [18] it was 26.2 µM (inactive). Further, the GI50 in assay [19] was 30.1 µM (inactive); in assay [20], 29.6 µM (inactive).

The term GI50 denotes the concentration giving 50% growth inhibition.

Source of the values: ChEMBL document CHEMBL1201862, “PubChem BioAssay data set” (2004).
